Laboratory results taken from US11530458B2, “Methods of using multi-ligand metal complexes to perform oxidative catalytic pretreatment of lignocellulosic biomass” (Board of Trustees of Michigan State University, priority 2014, dated 2022).

How the values were obtained:
[1] = Catalytic AOP pretreatment of alkali-extracted switchgrass, then enzymatic hydrolysis (glucose yield); parameters: species or system Panicum virgatum; conditions: for Glucose yield of enzymatic hydrolysis (% of theoretical maximum): 24 hr AOP pretreatment of AESG, catalyst concentration per table
Experimental: Screening of various metal ligand complexes (hereinafter “catalysts”) was performed via catalytic alkaline oxidative pretreatment (AOP) pretreatment of alkali-extracted switchgrass (AESG). To prepare AESG, 80 grams of untreated switchgrass (Panicum virgatum, cv. Cave-In-Rock, hammer milled to pass a 5-mm screen, and stored at a moisture content of approximately 5%) was soaked in an aqueous solution of 5 g/L NaOH at 80° C. for 2 hrs. The weight-to-volume (w/v) solids loading of switchgrass during alkaline extraction was 10% (e.g., 10 g of biomass in 100 mL NaOH solution). […] The washed solids was recovered as AESG and air-dried for over 7 days.
[Al(III)(3,5-^tBu2-salophen)Cl] [3,5-^tBu2-salophen=N,N′-bis(3,5-di-tert-butylsalicylidene)-1,2-phenylenediamine], [Zn(II)(BPPA)Cl]Cl [BPPA=N,N-bis(6-pivaloylamido-2-pyridylmethyl)-N-(2-pyridylmethyl)amine], and [NEt4][Fe(III)(bpb)Cl2]
To study the effect of catalytic AOP pretreatment on AESG, pretreatment was performed in a 100 g/L aqueous suspension of AESG in the presence of each catalyst. […] After 24 hrs of incubation at 30° C. without mixing, the pretreated switchgrass slurry was washed using deionized water to remove the alkaline phosphate buffer.
The enzymatic digestibility of AOP-pretreated switchgrass was estimated by the yield of glucose during the enzymatic hydrolysis of AOP pretreated AESG. The percentage yield was calculated on the basis of the glucan content in AESG prior to catalytic AOP pretreatment.
For enzymatic hydrolysis, 500 μL of 1 M Na-citrate buffer (pH 5) and 40 μL of 10 mM tetracycline (Sigma-Aldrich) were added to AOP-AESG that was not dried after catalytic AOP pretreatment. Accellerase 1500 (42 FPU/mL; Danisco-Genencor, Palo Alto, Calif.) was added at 50 mg protein per gram of glucan in AESG. The total volume of the mixture (solid and liquid) was adjusted with deionized water to reach a 5% (w/v) solids concentration, and the samples were incubated at 50° C. during hydrolysis.

[2] = Metal-catalyzed AOP pretreatment of chelated woody biomass, then enzymatic hydrolysis; conditions: [metal]:[bpy]=2 mM:4 mM; versus Mn-AOP and Fe-AOP; FIG. 30
Experimental: Three different pretreatment strategies were tested on each of the biomass samples: alkali only, alkaline hydrogen peroxide (AOP), and copper-catalyzed AOP (Cu-AOP). In all cases, 0.51 g of biomass (approximately 0.5 g dry basis; about 3 to about 5% moisture content) was pretreated in a total of 5.0 mL aqueous solution (10% solids loading). For alkali-only pretreatment, the solution contained 50 mg NaOH (100 mg NaOH/g biomass), while AOP pretreatment also contained 150 μL of 30% H2O2 (100 mg H2O2/g biomass). […]
Following pretreatment, 0.5 mL of 1 M citric acid buffer (pH 4.8) was added to the pretreated slurry, and the slurry was slowly titrated with 72% (w/w) H2SO4 to adjust the pH to 5.0 prior to enzymatic hydrolysis. […] The protein concentrations of the stock enzyme cocktails were quantified as y described in X. Gao, R. Kumar, S. Singh, B. A. Simmons, V. Balan, B. E. Dale and C. […]
Following enzymatic hydrolysis, the solid and liquid phases were separated by centrifugation, and the amount of glucose and xylose released into the aqueous phase was quantified by HPLC (Agilent 1260 Series equipped with an Aminex® HPX-87H column operating at 65° C., a mobile phase of 0.05 M H2SO4, a flow rate of 0.6 mL/min, and detection using an Agilent 1260 infinity refractive index detector). […]

[3] = Catalyst screening with multi-ligand metal complexes: enzymatic digestibility of hybrid poplar after AOP pretreatment; parameters: species or system Populus nigra var. charkoviensis×caudina cv. NE-19; conditions: FIG. 1
Experimental: Metal complexes (hereinafter “metal catalysts”) containing multiple or single metal coordinating ligands were tested. The metal catalysts tested included copper catalysts having a second metal coordinating ligand substituted for at least a portion of the 2,2′-bipyridine. These catalysts were evaluated for their performance in further enhancing the efficacy of AOP pretreatment of hybrid poplar. Ligands involved in the screening included histidine, glycine, di(2-picolyl)amine (dipica, 97%), 1,4,7-triazacyclononane (TACN, 95%), 2,2′;6′,2″-terpyridine (Terpy, 98%), 1,10-phenanthroline (phen, ≥99%), and tris(2-pyridylmethyl)amine (TPA, 98%, obtained from Sigma-Aldrich and Acros Organics/0). An iron 2,2′-bipyridine complex was prepared by mixing ferrous sulfate heptahydrate with 2,2′-bipyridine in an aqueous solution, and this iron complex was also tested.
The hybrid poplar (Populus nigra var. charkoviensis×caudina cv. NE-19) used in this testing was grown at the University of Wisconsin Arlington Agricultural Research Station. The hybrid poplar was harvested in 2011 and debarked using methods known in the art at the University of Wisconsin, Madison to produce heartwood and sap wood (different parts of the wood stem which can be differentiated via chemical testing). […]

copper(II) 2,2′-bipyridine complex [Cu(bpy), L/M = 3:1]
Glucose yield of enzymatic hydrolysis (% of theoretical maximum) ([1]; pH 10, 24 hrs hydrolysis): 38.67 ± 0.3 % of theoretical maximum | Glucose yield of enzymatic hydrolysis (% of theoretical maximum) ([1]; pH 10, 72 hrs hydrolysis): 42.98 ± 0.88 % of theoretical maximum | Glucose yield of enzymatic hydrolysis (% of theoretical maximum) ([1]; pH 11, 24 hrs hydrolysis): 41.65 ± 0.14 % of theoretical maximum | Glucose yield of enzymatic hydrolysis (% of theoretical maximum) ([1]; pH 11, 72 hrs hydrolysis): 44.97 ± 0.42 % of theoretical maximum | Improvement in enzymatic digestibility of AOP pretreated AESG ([1]; pH 11.5, versus no catalyst): very moderate improvement | Glucose yield of enzymatic hydrolysis (% of theoretical maximum) ([1]; pH 13, 24 hrs hydrolysis): 41.56 ± 0.06 % of theoretical maximum | Enzymatic digestibility after metal-catalyzed AOP [2]: significantly higher enzymatic digestibility than the addition of either Mn(bpy) or Fe(bpy) complexes | Performance in enhancing AOP pretreatment of hybrid poplar (enzymatic digestibility) [3]: superior performance among all candidates
